Measurements published in PMC7660650, “Chemical Starting Matter for HNF4α Ligand Discovery and Chemogenomics” (International Journal of Molecular Sciences, 2020).
“And” between values parts separate entries of the source, which are not always exact repeats. Equal entries are not always repeated.

The compounds below were run against T1, Gal4-HNF4α (human HNF4α LBD) (Homo sapiens, UniProt P41235) (assay: Hybrid Gal4-HNF4α reporter gene assay in transiently transfected HEK293T cells). Details: Table S1, primary screening, 50 µM.
T1 construct: uniprot entry: P41235-1, residues 142-377; expressed in transfected cells; host or cells: HEK293T
T1 sequence (P41235 142-377): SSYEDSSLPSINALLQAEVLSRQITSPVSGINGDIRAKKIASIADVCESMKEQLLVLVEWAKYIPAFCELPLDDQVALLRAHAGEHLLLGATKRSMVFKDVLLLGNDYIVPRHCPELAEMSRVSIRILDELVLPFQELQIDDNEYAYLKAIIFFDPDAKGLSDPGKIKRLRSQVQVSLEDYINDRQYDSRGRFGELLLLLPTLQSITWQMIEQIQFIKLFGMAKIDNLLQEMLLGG
Format: cell-based
In the case of `CC(C)C1NCCc2c1[nH]c1ccccc21` (centres unmarked) [Prestw-Frag-1264, CC(C)C1NCCc2c1[nH]c1ccccc21], the “HNF4a-screening_activity_(mean_of_n=2)” value is reported as 1.008.
For `NC1=NCCN1` [Prestw-Frag-1268, NC1=NCCN1], the “HNF4a-screening_activity_(mean_of_n=2)” value was 1.024.
For `COc1cc2c(cc1OC)C(C)N(C)CC2` (centres unmarked) [Prestw-Frag-1273, COc1cc2CCN(C)C(C)c2cc1OC], the “HNF4a-screening_activity_(mean_of_n=2)” value was 1.056 and 0.9179.
`COc1cc2c(cc1OC)CN(C)CC2` [Prestw-Frag-1275, COc1cc2CCN(C)Cc2cc1OC] was tested, and the “HNF4a-screening_activity_(mean_of_n=2)” value was 0.9717 and 0.8575.
With `COc1cc2c(cc1OC)CNCC2` [Prestw-Frag-1276, COc1cc2CCNCc2cc1OC] the “HNF4a-screening_activity_(mean_of_n=2)” value was 1.117.
In the case of `OCc1cc2ccccc2[nH]1` [Prestw-Frag-1297, OCc1cc2ccccc2[nH]1], the “HNF4a-screening_activity_(mean_of_n=2)” value is reported as 1.241.
With `CCc1cccc2c(CCO)c[nH]c12` [Prestw-Frag-1299, CCc1cccc2c(CCO)c[nH]c12] the “HNF4a-screening_activity_(mean_of_n=2)” value was 1.255.
For `OCCn1ccnc1` [Prestw-Frag-1303, OCCn1ccnc1], the “HNF4a-screening_activity_(mean_of_n=2)” value was 0.8061 and 1.219.
In the case of `C[C@H]1NC(=O)NC1=O` [Prestw-Frag-1311, C[C@H]1NC(=O)NC1=O], the “HNF4a-screening_activity_(mean_of_n=2)” value is reported as 1.09.
`COc1ccc(C(=O)O)cc1N1CCCC1` [Prestw-Frag-1313, COc1ccc(cc1N1CCCC1)C(O)=O] was tested, and the “HNF4a-screening_activity_(mean_of_n=2)” value was 1.093.
`O=C(O)c1ccccc1Nc1cccc(Cl)c1` [Prestw-Frag-1319, OC(=O)c1ccccc1Nc1cccc(Cl)c1] was tested, and the “HNF4a-screening_activity_(mean_of_n=2)” value was 0.64.
`Cc1cccc(Nc2ccccc2C(=O)O)c1` [Prestw-Frag-1320, Cc1cccc(Nc2ccccc2C(O)=O)c1] was tested, and the “HNF4a-screening_activity_(mean_of_n=2)” value was 0.7946 and 1.022.
For `Nc1cccc(C(F)(F)F)c1` [Prestw-Frag-1322, Nc1cccc(c1)C(F)(F)F], the “HNF4a-screening_activity_(mean_of_n=2)” value was 0.9015.
For `Fc1ccc(C(c2ccc(F)cc2)N2CCNCC2)cc1` [Prestw-Frag-1323, Fc1ccc(cc1)C(N1CCNCC1)c1ccc(F)cc1], the “HNF4a-screening_activity_(mean_of_n=2)” value was 1.017 and 1.002.
In the case of `CN1CCN(C(c2ccccc2)c2ccccc2)CC1` [Prestw-Frag-1325, CN1CCN(CC1)C(c1ccccc1)c1ccccc1], the “HNF4a-screening_activity_(mean_of_n=2)” value is reported as 0.9831.
In the case of `COc1ccccc1OCCCO` [Prestw-Frag-1335, COc1ccccc1OCCCO], the “HNF4a-screening_activity_(mean_of_n=2)” value is reported as 0.806 and 0.9658.
With `OCC(O)COc1ccccc1` (centres unmarked) [Prestw-Frag-1337, OCC(O)COc1ccccc1] the “HNF4a-screening_activity_(mean_of_n=2)” value was 0.9566.
In the case of `COc1ccccc1OCCO` [Prestw-Frag-1338, COc1ccccc1OCCO], the “HNF4a-screening_activity_(mean_of_n=2)” value is reported as 0.8769 and 0.9665.
`CCC(C(=O)OCCN(CC)CC)c1ccccc1` (centres unmarked) [Prestw-Frag-1343, CCC(C(=O)OCCN(CC)CC)c1ccccc1] was tested, and the “HNF4a-screening_activity_(mean_of_n=2)” value was 0.9028 and 1.004.
`CCN(CC)CCOc1ccccc1O` [Prestw-Frag-1345, CCN(CC)CCOc1ccccc1O] was tested, and the “HNF4a-screening_activity_(mean_of_n=2)” value was 0.7766 and 1.111.
With `OC(c1ccc(Cl)cc1)c1ccccn1` (centres unmarked) [Prestw-Frag-1346, OC(c1ccc(Cl)cc1)c1ccccn1] the “HNF4a-screening_activity_(mean_of_n=2)” value was 0.8912.
For `CCOC(=O)C1c2ccccc2Oc2ccccc21` [Prestw-Frag-1348, CCOC(=O)C1c2ccccc2Oc2ccccc12], the “HNF4a-screening_activity_(mean_of_n=2)” value was 0.8228.
For `CNC(=O)c1cnc(C)cn1` [Prestw-Frag-1350, CNC(=O)c1cnc(C)cn1], the “HNF4a-screening_activity_(mean_of_n=2)” value was 0.7205 and 0.8855.
For `CNCCc1c[nH]c2ccccc12` [Prestw-Frag-1356, CNCCc1c[nH]c2ccccc12], the “HNF4a-screening_activity_(mean_of_n=2)” value was 0.7184 and 0.9553.
For `COc1ccc(CNc2ncccn2)cc1` [Prestw-Frag-1358, COc1ccc(CNc2ncccn2)cc1], the “HNF4a-screening_activity_(mean_of_n=2)” value was 0.8945 and 1.199.
In the case of `O=C1COc2ccccc21` [Prestw-Frag-1361, O=C1COc2ccccc12], the “HNF4a-screening_activity_(mean_of_n=2)” value is reported as 1.58.
For `OC1(c2ccc(Cl)cc2)CCNCC1` [Prestw-Frag-1365, OC1(CCNCC1)c1ccc(Cl)cc1], the “HNF4a-screening_activity_(mean_of_n=2)” value was 0.8125.
With `CCCC(=O)c1ccc(F)cc1` [Prestw-Frag-1368, CCCC(=O)c1ccc(F)cc1] the “HNF4a-screening_activity_(mean_of_n=2)” value was 1.103.
In the case of `COc1ccc2cc[nH]c2c1` [Prestw-Frag-1372, COc1ccc2cc[nH]c2c1], the “HNF4a-screening_activity_(mean_of_n=2)” value is reported as 1.02.
`Oc1ccc2cc[nH]c2c1` [Prestw-Frag-1374, Oc1ccc2cc[nH]c2c1] was tested, and the “HNF4a-screening_activity_(mean_of_n=2)” value was 1.128.
For `O=C(OC1CCCCC1)c1ccccc1O` [Prestw-Frag-1382, Oc1ccccc1C(=O)OC1CCCCC1], the “HNF4a-screening_activity_(mean_of_n=2)” value was 0.9579 and 1.189.
In the case of `NCC(O)COc1cccc2ccccc12` (centres unmarked) [Prestw-Frag-1389, NCC(O)COc1cccc2ccccc12], the “HNF4a-screening_activity_(mean_of_n=2)” value is reported as 0.8528 and 1.218.
For `NS(=O)(=O)c1ccccc1C(F)(F)F` [Prestw-Frag-1394, NS(=O)(=O)c1ccccc1C(F)(F)F], the “HNF4a-screening_activity_(mean_of_n=2)” value was 0.846.
With `c1cc2c(cc1CN1CCNCC1)OCO2` [Prestw-Frag-1397, C(N1CCNCC1)c1ccc2OCOc2c1] the “HNF4a-screening_activity_(mean_of_n=2)” value was 1.012.
For `c1cnc(N2CCNCC2)nc1` [Prestw-Frag-1398, C1CN(CCN1)c1ncccn1], the “HNF4a-screening_activity_(mean_of_n=2)” value was 1.074 and 0.9138.
`COC(=O)C(CO)c1ccccc1` (centres unmarked) [Prestw-Frag-1406, COC(=O)C(CO)c1ccccc1] was tested, and the “HNF4a-screening_activity_(mean_of_n=2)” value was 0.9811 and 0.9479.
`Cc1c[nH]nc1C` [Prestw-Frag-1408, Cc1c[nH]nc1C] was tested, and the “HNF4a-screening_activity_(mean_of_n=2)” value was 1.108.
With `NNC(=O)c1ccncc1` [Prestw-Frag-1419, NNC(=O)c1ccncc1] the “HNF4a-screening_activity_(mean_of_n=2)” value was 0.9909.
For `NNC(=O)c1ccccc1` [Prestw-Frag-1420, NNC(=O)c1ccccc1], the “HNF4a-screening_activity_(mean_of_n=2)” value was 1.278.
For `c1cnc2[nH]ncc2c1` [Prestw-Frag-1428, c1n[nH]c2ncccc12], the “HNF4a-screening_activity_(mean_of_n=2)” value was 1.325.
`NC(=O)c1ccccc1O` [Prestw-Frag-1439, NC(=O)c1ccccc1O] was tested, and the “HNF4a-screening_activity_(mean_of_n=2)” value was 1.146.
For `c1ccc(-c2ccccc2-c2nnn[nH]2)cc1` [Prestw-Frag-1441, c1ccc(cc1)-c1ccccc1-c1nnn[nH]1], the “HNF4a-screening_activity_(mean_of_n=2)” value was 1.051 and 0.7815.
With `c1ccc(CC2NCCc3ccccc32)cc1` (centres unmarked) [Prestw-Frag-1444, C(C1NCCc2ccccc12)c1ccccc1] the “HNF4a-screening_activity_(mean_of_n=2)” value was 1.349.
For `COc1ccc(CCN(C)C)cc1OC` [Prestw-Frag-1445, COc1ccc(CCN(C)C)cc1OC], the “HNF4a-screening_activity_(mean_of_n=2)” value was 1.047 and 0.984.
`CNCCc1ccc(OC)c(OC)c1` [Prestw-Frag-1446, CNCCc1ccc(OC)c(OC)c1] was tested, and the “HNF4a-screening_activity_(mean_of_n=2)” value was 1.187 and 1.106.
For `CCN(CC)Cc1cc(N)ccc1O` [Prestw-Frag-1462, CCN(CC)Cc1cc(N)ccc1O], the “HNF4a-screening_activity_(mean_of_n=2)” value was 1.135.
With `c1ccc(CNc2ccccn2)cc1` [Prestw-Frag-1475, C(Nc1ccccn1)c1ccccc1] the “HNF4a-screening_activity_(mean_of_n=2)” value was 1.278.
`CN(C)CCNCc1ccccc1` [Prestw-Frag-1476, CN(C)CCNCc1ccccc1] was tested, and the “HNF4a-screening_activity_(mean_of_n=2)” value was 1.113.
`CC(=O)NCCc1c[nH]c2ccccc12` [Prestw-Frag-1478, CC(=O)NCCc1c[nH]c2ccccc12] was tested, and the “HNF4a-screening_activity_(mean_of_n=2)” value was 1.089.
`COc1ccc2[nH]cc(CCN)c2c1` [Prestw-Frag-1480, COc1ccc2[nH]cc(CCN)c2c1] was tested, and the “HNF4a-screening_activity_(mean_of_n=2)” value was 1.025 and 1.119.
`Nc1c(Cl)ccc2nsnc12` [Prestw-Frag-1492, Nc1c(Cl)ccc2nsnc12] was tested, and the “HNF4a-screening_activity_(mean_of_n=2)” value was 1.089.
`Cc1cnc(C(=O)O)cn1` [Prestw-Frag-1494, Cc1cnc(cn1)C(O)=O] was tested, and the “HNF4a-screening_activity_(mean_of_n=2)” value was 0.7971 and 1.166.
For `O=C(O)c1cnccn1` [Prestw-Frag-1495, OC(=O)c1cnccn1], the “HNF4a-screening_activity_(mean_of_n=2)” value was 1.013.
`O=C(O)CC[C@H](NC(=O)c1ccccc1)C(=O)O` [Prestw-Frag-1499, OC(=O)CC[C@H](NC(=O)c1ccccc1)C(O)=O] was tested, and the “HNF4a-screening_activity_(mean_of_n=2)” value was 1.11.
In the case of `COc1cc(C)cc(C)c1C` [Prestw-Frag-1506, COc1cc(C)cc(C)c1C], the “HNF4a-screening_activity_(mean_of_n=2)” value is reported as 1.143.
In the case of `Cc1nccn1CCO` [Prestw-Frag-1517, Cc1nccn1CCO], the “HNF4a-screening_activity_(mean_of_n=2)” value is reported as 0.9796 and 1.002.
`CNCC(c1ccc(OC)cc1)C1(O)CCCCC1` (centres unmarked) [Prestw-Frag-1523, CNCC(c1ccc(OC)cc1)C1(O)CCCCC1] was tested, and the “HNF4a-screening_activity_(mean_of_n=2)” value was 1.103 and 1.105.
With `CN(C)C(=O)Oc1ccccc1` [Prestw-Frag-1540, CN(C)C(=O)Oc1ccccc1] the “HNF4a-screening_activity_(mean_of_n=2)” value was 1.182.
In the case of `Nc1ccc([N+](=O)[O-])cc1Cl` [Prestw-Frag-1543, Nc1ccc(cc1Cl)[N+]([O-])=O], the “HNF4a-screening_activity_(mean_of_n=2)” value is reported as 0.9851.
With `COC(=O)C1=C(C)NC(C)=C(C(=O)OC)C1` [Prestw-Frag-1547, COC(=O)C1=C(C)NC(C)=C(C1)C(=O)OC] the “HNF4a-screening_activity_(mean_of_n=2)” value was 0.9986.
With `CN1Cc2c(N)cccc2C(c2ccccc2)C1` (centres unmarked) [Prestw-Frag-1552, CN1CC(c2ccccc2)c2cccc(N)c2C1] the “HNF4a-screening_activity_(mean_of_n=2)” value was 1.162.
In the case of `CN1CCc2cccc(N)c2C1` [Prestw-Frag-1553, CN1CCc2cccc(N)c2C1], the “HNF4a-screening_activity_(mean_of_n=2)” value is reported as 1.039 and 1.009.
In the case of `COc1ccc(N2CCN(c3ccc(N)cc3)CC2)cc1` [Prestw-Frag-1557, COc1ccc(cc1)N1CCN(CC1)c1ccc(N)cc1], the “HNF4a-screening_activity_(mean_of_n=2)” value is reported as 1.098.
With `O=c1[nH]nc(Cc2ccc(Cl)cc2)c2ccccc12` [Prestw-Frag-1559, Clc1ccc(Cc2n[nH]c(=O)c3ccccc23)cc1] the “HNF4a-screening_activity_(mean_of_n=2)” value was 1.206 and 0.9531.
For `O=c1[nH]ncc2ccccc12` [Prestw-Frag-1560, O=c1[nH]ncc2ccccc12], the “HNF4a-screening_activity_(mean_of_n=2)” value was 1.119.
`O=c1[nH]nc(Cc2ccccc2)c2ccccc12` [Prestw-Frag-1561, O=c1[nH]nc(Cc2ccccc2)c2ccccc12] was tested, and the “HNF4a-screening_activity_(mean_of_n=2)” value was 1.103.
In the case of `Cc1cc(C(C)(C)C)cc(C)c1CC1=NCCN1` [Prestw-Frag-1575, Cc1cc(cc(C)c1CC1=NCCN1)C(C)(C)C], the “HNF4a-screening_activity_(mean_of_n=2)” value is reported as 1.056.
`O=c1[nH]c2ccccc2n1C1CCNCC1` [Prestw-Frag-1587, O=c1[nH]c2ccccc2n1C1CCNCC1] was tested, and the “HNF4a-screening_activity_(mean_of_n=2)” value was 1.041.
